Measurements from PMC12521527, “In vivo self-assembled nano-PROTAC for the dual degradation of AR and HSP90 to overcome castration-resistant prostate cancer resistance” (Signal Transduction and Targeted Therapy, 2025).
Numbered stars: 1 amine (or outer) side, 2 acyl side, 3 side chain; on linkers, the order of the positions; unused ones are H or OH. Square brackets hold non-standard residues; d marks the D form. Peptide text beside a SMILES is read from it. * marks the point of attachment. X2 = CC1(C)C(=O)N(c2ccc(C#N)c(C(F)(F)F)c2)C(=S)N1c1ccc(C(=O)*)c(F)c1; X1 = O=C1CCC(N2C(=O)c3cccc(N(CC(=O)[*:2])[*:1])c3C2=O)C(=O)N1; EuK = O=C(O)CC[C@H](NC(=O)N[C@@H](CCCCN*)C(=O)O)C(=O)O; 2Nal = N[C@@H](Cc1ccc2ccccc2c1)C(=O)O

What was measured:
[1] = test system: RWPE-1 (PSMA^low) and 22Rv1 (PSMA^high) cells; assay: Uptake in RWPE-1 versus 22Rv1 cells (flow cytometry, IF); format: cell-based
Experimental: (§1) Fig. 2 a Representative 22Rv1 cell CLSM images of FITC-labeled Psa-AR (40 μM) assembly (green channel) interacting with PSMA (red channel) and its colocalization analysis (1–1’). Scale bar: 10 μm. b Representative SEM images of 22Rv1 cells after treatment with Psa-AR (40 μM) for 4 h. Scale bar: 1 μm. Scale bar: 200 nm (zoom in). c Representative 22Rv1 cell CLSM images of FITC-labeled P-AR (40 μM) (green channel) interacting with PSMA (red channel). Scale bar: 10 μm. d Representative SEM images of 22Rv1 cells after treatment with P-AR (40 μM) for 4 h. Scale bar: 1 μm. Scale bar: 200 nm (zoom in). e The uptake of either Psa-AR or P-AR by 22Rv1 (PSMA^high) and RWPE-1 (PSMA^low) cells was examined by flow cytometry, followed by comprehensive quantitative analysis (f), n = 3 per group. g Representative 22Rv1 cell CLSM images of FITC-labeled Psa-AR assembly (green channel) with lysosomes (red channel) and colocalization analysis. Scale bar: 10 μm. h Representative CLSM images of 22Rv1 cells after incubation with FITC-labeled Psa-AR (green channel) for 12 h. […]
(§2) A total of 1 × 10^5 22Rv1 cells per well were seeded in 6-well plates in DMEM containing 10% fetal bovine serum and 1% penicillin‒streptomycin. […] Then, the cells were collected to evaluate fluorescence expression via flow cytometry. […] The cells were then collected and analyzed for fluorescence expression via flow cytometry.

AR-V7 = assay: Western blot AR-V7 degradation in 22Rv1 cells; format: cell-based; details: 22Rv1, 20 μM, 48 h
Experimental: (§3) All uncropped blots are presented in Supplementary Fig. 26. j, k Representative 22Rv1 cell CLSM images of the degradation of AR after incubation with FITC-labeled Psa-AR for 12 h and quantitative analysis, n = 3 per group. Scale bar: 10 μm. l, m Representative 22Rv1 cell CLSM images of the degradation of HSP90 after incubation with FITC-labeled Psa-AR for 12 h and quantitative analysis, n = 3 per group. Scale bar: 10 μm. n AR-V7 expression in 22Rv1 cells after treatment with PBS, P-AR (20 μM), Psa-AR (20 μM) or Psa-AR (20 μM) combined with MG132 (2 μM) for 48 h, as determined by western blotting. β-Actin was used as an internal reference. o Results of apoptosis in 22Rv1 cells treated with PBS, P-AR (20 μM), or Psa-AR (20 μM) for 48 h, as detected by flow cytometry.
(§4) The pretreated cells were resuspended in lysis buffer containing 50 mM Tris-HCl (pH 8.0), 150 mM NaCl, 1% (v/v) Triton X-100, and protease inhibitors. The protein concentration was determined via a BCA kit (Applygen). Each sample ([…]) was subjected to SDS‒PAGE and then transferred to a PVDF membrane. The blots were blocked in 5% (wt/v) blocking buffer. After washing three times with TBST buffer (10 mM TBS solution containing 0.1% (v/v) Tween-20), the blots were incubated with primary antibodies at 4 °C on a shaker for 16 h. […]

RWPE-1 cells = assay: Cytotoxicity in normal RWPE-1 cells; format: cell-based; details: PSMA^low normal RWPE-1 cells, 1–100 μM, 48 h of exposure
HSP90 = assay: Western blot HSP90 degradation in 22Rv1 cells; format: cell-based
Experimental: as §3, §4

22Rv1 cells = assay: Annexin V/PI apoptosis by flow cytometry; format: cell-based; details: 22Rv1, 20 μM, 48 h, n = 3
Experimental: as §3

22Rv1 (PSMA^high) cells = assay: Flow cytometry uptake of FITC-labeled conjugates in 22Rv1 cells; format: cell-based; details: 40 µM, 24 h, n = 3
Experimental: as §1, §2

AR = molecular target: T1, AR (Homo sapiens, UniProt P10275, T878A); assay: Western blot AR degradation in LNCaP cells; format: cell-based
T1 construct: endogenous in cells; host or cells: LNCaP
T1 sequence (P10275 whole entry T878A): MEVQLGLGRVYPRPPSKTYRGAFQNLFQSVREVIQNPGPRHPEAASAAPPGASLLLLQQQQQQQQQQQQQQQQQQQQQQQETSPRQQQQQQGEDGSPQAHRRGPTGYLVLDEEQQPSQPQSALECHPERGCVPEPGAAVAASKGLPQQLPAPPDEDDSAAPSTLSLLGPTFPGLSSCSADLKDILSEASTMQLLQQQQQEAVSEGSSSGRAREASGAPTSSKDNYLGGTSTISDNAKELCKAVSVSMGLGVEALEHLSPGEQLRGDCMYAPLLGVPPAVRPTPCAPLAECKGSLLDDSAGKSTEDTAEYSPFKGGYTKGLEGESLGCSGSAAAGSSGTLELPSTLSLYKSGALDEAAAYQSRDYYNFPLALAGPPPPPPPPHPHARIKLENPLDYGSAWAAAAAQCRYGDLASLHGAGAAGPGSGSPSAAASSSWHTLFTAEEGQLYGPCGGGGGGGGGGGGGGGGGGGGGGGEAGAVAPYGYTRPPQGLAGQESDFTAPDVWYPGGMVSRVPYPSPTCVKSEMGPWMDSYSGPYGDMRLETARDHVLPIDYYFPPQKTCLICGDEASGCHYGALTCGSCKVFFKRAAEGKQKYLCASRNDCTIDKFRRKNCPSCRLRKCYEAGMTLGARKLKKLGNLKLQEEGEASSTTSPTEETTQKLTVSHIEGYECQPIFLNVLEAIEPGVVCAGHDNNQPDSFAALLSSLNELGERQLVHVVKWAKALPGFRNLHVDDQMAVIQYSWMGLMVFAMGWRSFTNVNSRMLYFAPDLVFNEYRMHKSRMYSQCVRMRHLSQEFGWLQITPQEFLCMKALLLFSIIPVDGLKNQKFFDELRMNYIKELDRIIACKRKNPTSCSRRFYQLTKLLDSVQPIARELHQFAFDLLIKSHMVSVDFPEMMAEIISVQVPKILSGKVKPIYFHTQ
T1 sequence (Q16531 whole entry, further chain): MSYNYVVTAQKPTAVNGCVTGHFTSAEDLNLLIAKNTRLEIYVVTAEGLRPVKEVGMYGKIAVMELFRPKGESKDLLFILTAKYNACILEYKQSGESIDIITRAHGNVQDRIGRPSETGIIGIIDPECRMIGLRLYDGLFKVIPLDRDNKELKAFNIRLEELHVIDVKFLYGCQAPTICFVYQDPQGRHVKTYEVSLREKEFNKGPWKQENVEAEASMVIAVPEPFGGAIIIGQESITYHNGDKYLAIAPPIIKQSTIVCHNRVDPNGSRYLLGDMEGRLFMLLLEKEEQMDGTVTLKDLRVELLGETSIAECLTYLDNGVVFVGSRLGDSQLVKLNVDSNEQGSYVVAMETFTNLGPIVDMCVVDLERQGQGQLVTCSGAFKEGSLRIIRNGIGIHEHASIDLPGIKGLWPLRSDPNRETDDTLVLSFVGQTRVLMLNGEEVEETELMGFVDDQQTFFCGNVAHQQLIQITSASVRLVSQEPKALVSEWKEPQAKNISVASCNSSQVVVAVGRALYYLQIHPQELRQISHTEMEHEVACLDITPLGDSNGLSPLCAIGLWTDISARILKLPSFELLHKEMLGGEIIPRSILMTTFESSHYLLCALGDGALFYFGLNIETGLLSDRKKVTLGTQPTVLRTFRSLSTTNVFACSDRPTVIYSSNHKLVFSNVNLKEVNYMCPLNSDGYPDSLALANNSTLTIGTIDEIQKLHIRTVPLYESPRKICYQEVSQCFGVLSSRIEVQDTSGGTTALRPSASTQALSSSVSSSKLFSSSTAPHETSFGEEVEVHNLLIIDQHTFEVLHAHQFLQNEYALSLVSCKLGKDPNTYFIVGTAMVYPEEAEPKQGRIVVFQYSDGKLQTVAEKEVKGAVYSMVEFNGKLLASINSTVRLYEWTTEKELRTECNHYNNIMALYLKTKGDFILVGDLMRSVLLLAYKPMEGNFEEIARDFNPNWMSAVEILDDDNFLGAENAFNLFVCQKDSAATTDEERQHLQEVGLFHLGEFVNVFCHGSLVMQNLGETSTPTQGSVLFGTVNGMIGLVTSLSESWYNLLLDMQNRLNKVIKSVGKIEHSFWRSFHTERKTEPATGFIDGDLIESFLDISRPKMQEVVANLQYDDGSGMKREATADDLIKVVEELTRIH
T1 sequence (Q96SW2 whole entry, further chain): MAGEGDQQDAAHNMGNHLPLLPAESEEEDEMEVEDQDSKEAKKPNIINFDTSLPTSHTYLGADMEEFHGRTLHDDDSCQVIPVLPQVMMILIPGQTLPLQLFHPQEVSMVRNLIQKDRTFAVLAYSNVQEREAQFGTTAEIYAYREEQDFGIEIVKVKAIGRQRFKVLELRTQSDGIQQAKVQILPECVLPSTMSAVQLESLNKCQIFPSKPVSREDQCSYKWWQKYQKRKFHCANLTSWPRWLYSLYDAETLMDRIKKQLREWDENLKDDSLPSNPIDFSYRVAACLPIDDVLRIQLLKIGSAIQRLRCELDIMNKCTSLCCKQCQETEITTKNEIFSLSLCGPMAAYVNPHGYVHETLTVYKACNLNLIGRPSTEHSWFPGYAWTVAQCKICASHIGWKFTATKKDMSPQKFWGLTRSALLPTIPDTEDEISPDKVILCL
Experimental: as §3
The pretreated cells were resuspended in lysis buffer containing 50 mM Tris-HCl (pH 8.0), 150 mM NaCl, 1% (v/v) Triton X-100, and protease inhibitors. The protein concentration was determined via a BCA kit (Applygen). Each sample ([…]) was subjected to SDS‒PAGE and then transferred to a PVDF membrane. The blots were blocked in 5% (wt/v) blocking buffer. After washing three times with TBST buffer (10 mM TBS solution containing 0.1% (v/v) Tween-20), the blots were incubated with primary antibodies at 4 °C on a shaker for 16 h. After washing with TBST buffer three times, the blot was incubated with secondary antibodies at room temperature on a shaker for 2 h. After being washed three times with TBST buffer, the blots were subsequently scanned on a Typhoon Trio Variable Mode Imager.

[2] = ThT assay of self-assembly (critical assembly concentration, assembly kinetics); format: physicochemical

SMILES: CC1(C)C(=O)N(c2ccc(C#N)c(C(F)(F)F)c2)C(=S)N1c1ccc(C(=O)NCCCC[C@H](NC(=O)CNc2cccc3c2C(=O)N(C2CCC(=O)NC2=O)C3=O)C(=O)N[C@@H](CS)C(=O)N[C@@H](CCC(N)=O)C(=O)N[C@@H](Cc2ccc(O)cc2)C(=O)N[C@@H](CC(N)=O)C(=O)N[C@@H](CCC(N)=O)C(=O)N[C@@H](Cc2ccc(O)cc2)C(=O)N[C@@H](Cc2ccc(O)cc2)C(=O)N[C@@H](Cc2ccc3ccccc3c2)C(=O)NCCCC[C@H](NC(=O)N[C@@H](CCC(=O)O)C(=O)O)C(=O)O)c(F)c1 (stereo partly drawn) [Psa-AR] (H-[X1]K(X2)CQYNQYY[2Nal]-EuK)
- selectivity ratio between PSMA^low RWPE-1 and PSMA^high 22Rv1 cells, relative to P-AR ([1]; FITC-labeled, 40 µM, 24 h, flow cytometry, n = 3): 13 fold
- cellular uptake in RWPE-1 cells ([1]; IF, RWPE-1 (PSMA^low) cells): low cellular uptake
- greater AR-V7 degradation than P-AR (AR-V7): 66%
- cell viability relative to vehicle controls (RWPE-1 cells): above 90%
- HSP90 degradation (HSP90; 22Rv1, 20 μM, 48 h, western blot): > 60%
- sustained HSP90 protein clearance over 96 h (HSP90; 22Rv1, optimal concentrations, 96 h): 78%
- total apoptotic cells (early and late phases) (22Rv1 cells): 75%
- uptake efficiency relative to nonassembling P-AR (22Rv1 (PSMA^high) cells): 5 fold
- AR degradation rate (AR; LNCaP cells, time-dependent evaluation): 97%
- DC50 (AR; read-out: DC50 for AR protein degradation, LNCaP cell line, 1 to 100 μM): 11.4 µM
- superior AR degradation efficiency relative to P-AR (AR; western blot, LNCaP, 20 μM, 48 h): 49%
- lowering of CAC by PSMA binding ([2]; ThT assay, 95.5–10.9 μM): 8.76 fold
- time to full assembly equilibrium, PSMA-bound ([2]; ThT kinetic curve, 40 μM, PSMA added): 12 h
- t1/2 of self-assembly (50% assembly), PSMA-bound ([2]; ThT kinetic curve, 40 μM, PSMA added, n = 3): 1.4 h
- time to full assembly equilibrium, unbound ([2]; ThT kinetic curve, 40 μM, without PSMA): 60 h
- t1/2 of self-assembly (50% assembly), unbound ([2]; ThT kinetic curve, 40 μM, without PSMA, n = 3): 11.4 h
- critical assembly concentration (CAC) with PSMA added ([2]; standard ThT assay, PSMA added, n = 3, P-AR tested up to 50 μM): 10.9 µM
- critical assembly concentration (CAC) ([2]; standard ThT assay, without PSMA, n = 3): 95.5 µM
